Each structure is given as a SMILES string.

One data set relates to Staphylococcus aureus. Put plainly: Antimicrobial study against Staphylococcus aureus (gram-positive bacteria). In kind it is cell-based. The note with it: methylolated C8/10 10,800 ppm, methylolated lauric 11,400 ppm, DMDMH 3,000 ppm, others 14,700 ppm. Here is the method: (§1) The antimicrobial properties of typical esters (I) and (Ia) were tested by minimum inhibitory concentration (MIC) tests, along with certain known substances, against […] strains of organisms: a mold, Aspergillus niger; a gram-positive bacteria, Staphylococcus aureus; and two gram-negative bacteria, Escherichia coli and Pseudomonas aeruginosa. […] These tests were used to determine any effect on biocidal activity of the varying chain length of the ester.
(§2) The known substances, on which identical tests were also performed, included the biocide, dimethyloldimethylhydantoin or DMDMH (iv), and a series of three surfactants, i.e., the three common emulsifiers, sodium lauryl sulfate (SLS); ethylene glycol distearate (EGDS), in the form of the commercial product PEGOSPERSE 50 DS (Lonza Inc.); and polyoxyethylene 20 sorbitan monoleate (POE 20 SMO), in the form of the commercial product GLYCOSPERSE 0 20 (Lonza Inc.).
(§3) The tests entailed contaminating a preexisting micro-colony with a known quantity (ppm, concentration) of test material. Each colony was then examined periodically over a one week period. […] A test was deemed non-efficacious when there was no decrease in colony size. In an effort to avoid any possible solvent effect, the micro-study was conducted in a totally aqueous solvent system without use of any other solvent.

For another data set, the system named is Escherichia coli. Put plainly: Antimicrobial study against Escherichia coli (gram-negative bacteria). In kind it is cell-based. The settings on record: methylolated C8/10 10,800 ppm, methylolated lauric 11,400 ppm, DMDMH 3,000 ppm, others 14,700 ppm. Here is the method:
as §1, §2, §3

The next data set deals with Pseudomonas aeruginosa. Put plainly: Antimicrobial study against Pseudomonas aeruginosa (gram-negative bacteria). In kind it is cell-based. The note with it: methylolated C8/10 10,800 ppm, methylolated lauric 11,400 ppm, DMDMH 3,000 ppm, others 14,700 ppm. Here is the method: as §1, §2, §3
The next data set deals with Aspergillus niger. The data set is described as follows: Antimicrobial study against Aspergillus niger (mold). In kind it is cell-based. The settings on record: methylolated C8/10 10,800 ppm, methylolated lauric 11,400 ppm, DMDMH 3,000 ppm, others 14,700 ppm. Here is the method:
as §1, §2, §3

For data set [1] the following is noted: as formaldehyde donor; cited from earlier work.
Data set [2] concerns mold, and gram-positive and gram-negative bacteria. Put plainly: Antimicrobial tests, overall biocidal effectiveness. In kind it is cell-based. The settings on record: under the test conditions. Here is the method:
as §1, §2, §3

The nature of data set [3]: Surface tension tests (cmc, Gibbs' Free Energy of Micellation). In kind it is physicochemical. Here is the method: Surface tension tests were conducted as to the relationship between the fatty acid aliphatic chain length, i.e. number of carbon atoms, in the esters (I), and their performance as surfactants. The length of the hydrophobic chain of a molecule is considered the major contributing factor to the critical micelle concentration (cmc) value of a surfactant. This value is obtained from surface tension measurement data. The lower the cmc, the more readily the material will form micelles.
The Gibbs' Free Energy of Micellation (ΔG°cmc) and the ΔG°cmc per --CH2 -- can be determined if the cmc is known.
The ΔG°cmc is a calculated value obtained by Equation 1.
ΔG°cmc =2.303RT(log cmc-log[water]) (Eq. 1)
The ΔG°cmc per --CH2 -- value is obtained from the slope of the straight line curve formed from a plot of ΔG°cmc versus the number of carbon atoms in the lipophilic chain.
The cmc values were based on surface tension tests conducted with a tensiometer (Cenco-DuNoug Precision Model #70535, direct reading model) to determine the upward surface tension at the liquid-air surface of the test ester/water solution. The methods used to calibrate the tensiometer, calculate the "correction factor" (used to correct for the difference between the apparent and true surface tension), and collect data, were conducted as described in the manual for the instrument. Sodium lauryl sulfate (SLS) and distilled water were used as reference samples.
On completing data collection, plots of the surface tension (dynes) versus -log of the concentration (mols/liter) were prepared, using only the "corrected" surface tension value, obtained by applying the noted "correction factor" in each case. The […] was found by multiplying the "apparent" surface tension by a calculated correction factor.
The critical micelle concentration (cmc) for each sample was determined by locating the point in the curve where the surface tension first begins to level off, per a known procedure.

Turning to `CC1(C)C(=O)N(CO)C(=O)N1CO` [DMDMH (iv), 1,3-dihydroxymethyl-5,5-dimethyl-1,3-diazacyclopentane-2,4-dione, reference compound], the “Colony Count” value is “TNC” in the data set on Staphylococcus aureus (Day 0); “TNC” in the data set on Staphylococcus aureus (Day 1); “TNC” with Staphylococcus aureus (Day 2); < 0.01 × 1,000 in the data set with Staphylococcus aureus (Day 3); < 0.01 × 1,000 in the data set with Staphylococcus aureus (Day 7); “TNC” with Escherichia coli (Day 0). Further, the “Colony Count” value is reported as “TNC” in the data set on Escherichia coli (Day 1); “TNC” with Escherichia coli (Day 2); < 0.01 × 1,000 with Escherichia coli (Day 3); < 0.01 × 1,000 in the data set with Escherichia coli (Day 7); “TNC” in the data set with Pseudomonas aeruginosa (Day 0); “TNC” with Pseudomonas aeruginosa (Day 1). Besides, the “Colony Count” value is on record as < 0.01 × 1,000 in the data set on Pseudomonas aeruginosa (Day 2); < 0.01 × 1,000 in the data set with Pseudomonas aeruginosa (Day 3); < 0.01 × 1,000 in the data set on Pseudomonas aeruginosa (Day 7); 400 × 1,000 in the data set on Aspergillus niger (Day 0); < 0.03 × 1,000 in the data set with Aspergillus niger (Day 1); < 0.01 × 1,000 in the data set on Aspergillus niger (Day 2). The “Colony Count” value in the data set on Aspergillus niger (Day 3) and with Aspergillus niger (Day 7) was < 0.01 × 1,000 each time. Further, the “minimum inhibitory concentration (MIC)” value in data set [1] was 0.1%.

Regarding `CCCCCCCCCCCCCCCCCC(=O)OCCOC(=O)CCCCCCCCCCCCCCCCC` [EGDS, ethylene glycol distearate, reference compound], in data set [2], the biocidal effectiveness entry was “none of the three known long aliphatic chain containing emulsifiers, sodium lauryl sulfate, ethylene glycol distearate and POE 20 sorbitan monoleate, was effective as a biocide”. Moreover, the “Colony Count” value is reported as 600 × 1,000 in the data set on Staphylococcus aureus (Day 0); 350 × 1,000 with Staphylococcus aureus (Day 1); “TNC” with Staphylococcus aureus (Day 2); “TNC” in the data set on Staphylococcus aureus (Day 3); 2,000 × 1,000 in the data set with Staphylococcus aureus (Day 7); 2,000 × 1,000 in the data set on Escherichia coli (Day 0). The “Colony Count” value in the data set on Escherichia coli (Day 1) was “TNC”; with Escherichia coli (Day 2), “TNC”; in the data set with Escherichia coli (Day 3), “TNC”; in the data set with Escherichia coli (Day 7), “TNC”; with Pseudomonas aeruginosa (Day 0), 3,000 × 1,000; in the data set on Pseudomonas aeruginosa (Day 1), “TNC”. The “Colony Count” value was “TNC” with Pseudomonas aeruginosa (Day 2); 2,500 × 1,000 in the data set on Pseudomonas aeruginosa (Day 3); “TNC” in the data set on Pseudomonas aeruginosa (Day 7); 2,000 × 1,000 with Aspergillus niger (Day 0); 500 × 1,000 in the data set on Aspergillus niger (Day 1); 300 × 1,000 with Aspergillus niger (Day 2). The “Colony Count” value is 200 × 1,000 in the data set on Aspergillus niger (Day 3) and 700 × 1,000 with Aspergillus niger (Day 7).

Consider `CC1(C)C(=O)NC(=O)N1CO` [MDMH (iii), 1-hydroxymethyl-5,5-dimethyl-1,3-diazacyclopentane-2,4-dione], for which the “minimum inhibitory concentration (MIC)” value in data set [1] is recorded as 0.2%.

As for `CCCCCCCCCCCCOS(=O)(=O)[O-].[Na+]` [SLS, Sodium lauryl sulfate, reference compound], in data set [2], the biocidal effectiveness result was “none of the three known long aliphatic chain containing emulsifiers, sodium lauryl sulfate, ethylene glycol distearate and POE 20 sorbitan monoleate, was effective as a biocide”. Moreover, the “Colony Count” value is 2,000 × 1,000 in the data set with Staphylococcus aureus (Day 0); 3,000 × 1,000 in the data set on Staphylococcus aureus (Day 1); “TNC” in the data set with Staphylococcus aureus (Day 2); 450 × 1,000 in the data set on Staphylococcus aureus (Day 3); < 0.01 × 1,000 in the data set with Staphylococcus aureus (Day 7); 8,000 × 1,000 in the data set with Escherichia coli (Day 0). Moreover, the “Colony Count” value in the data set on Escherichia coli (Day 1) was 20 × 1,000; in the data set on Escherichia coli (Day 2), “TNC”; in the data set with Escherichia coli (Day 3), 160 × 1,000; in the data set on Escherichia coli (Day 7) it was 60 × 1,000; with Pseudomonas aeruginosa (Day 0), 4,100 × 1,000; with Pseudomonas aeruginosa (Day 1) it was 500 × 1,000. Moreover, the “Colony Count” value in the data set with Pseudomonas aeruginosa (Day 2) is “TNC”; in the data set on Pseudomonas aeruginosa (Day 3), 30 × 1,000; in the data set with Pseudomonas aeruginosa (Day 7), 50 × 1,000; in the data set on Aspergillus niger (Day 0), 600 × 1,000; with Aspergillus niger (Day 1) it was 2,000 × 1,000; in the data set with Aspergillus niger (Day 2), 300 × 1,000. Further, the results for the “Colony Count” value in the data set with Aspergillus niger (Day 3) and in the data set on Aspergillus niger (Day 7) were 160 × 1,000 and 200 × 1,000, respectively. Further, the “ΔG°cmc” value in data set [3] (Table 6) was -5.552 kcal/mol. Besides, in data set [3] (calculated from cmc by Eq. 1, T=298° K.), the “ΔG°cmc (Gibbs' Free Energy of Micellation)” value is -5.552 kcal/mol. The “cmc (critical micelle concentration)” value in data set [3] (ester/water solution) is on record as 4.4 × 10^-3 mol dm^-3.

Source of the values: patent US5100907A, “Hydantoin esters” (Lonza, Inc., priority 1990, dated 1992).
